Measurements published in the kinase profiling compilation of Christmann-Franck et al. (2016).

Columns and labels:
Experiment in all cases: KINOMEscan competition binding
Conditions in all cases: compound 10.0 µM
[1] = biological target: NUAK1 (human) (UniProt O60285)
[2] = biological target: MAP3K9 (human) (UniProt P80192)
[3] = biological target: WEE1 (human) (UniProt P30291)
[4] = biological target: BMPR1B (human) (UniProt O00238)
[5] = biological target: TSSK1B (human) (UniProt Q9BXA7)
[6] = biological target: DYRK1B (human) (UniProt Q9Y463)
DYRK1B (human), sequence (Q9Y463 whole entry, looked up): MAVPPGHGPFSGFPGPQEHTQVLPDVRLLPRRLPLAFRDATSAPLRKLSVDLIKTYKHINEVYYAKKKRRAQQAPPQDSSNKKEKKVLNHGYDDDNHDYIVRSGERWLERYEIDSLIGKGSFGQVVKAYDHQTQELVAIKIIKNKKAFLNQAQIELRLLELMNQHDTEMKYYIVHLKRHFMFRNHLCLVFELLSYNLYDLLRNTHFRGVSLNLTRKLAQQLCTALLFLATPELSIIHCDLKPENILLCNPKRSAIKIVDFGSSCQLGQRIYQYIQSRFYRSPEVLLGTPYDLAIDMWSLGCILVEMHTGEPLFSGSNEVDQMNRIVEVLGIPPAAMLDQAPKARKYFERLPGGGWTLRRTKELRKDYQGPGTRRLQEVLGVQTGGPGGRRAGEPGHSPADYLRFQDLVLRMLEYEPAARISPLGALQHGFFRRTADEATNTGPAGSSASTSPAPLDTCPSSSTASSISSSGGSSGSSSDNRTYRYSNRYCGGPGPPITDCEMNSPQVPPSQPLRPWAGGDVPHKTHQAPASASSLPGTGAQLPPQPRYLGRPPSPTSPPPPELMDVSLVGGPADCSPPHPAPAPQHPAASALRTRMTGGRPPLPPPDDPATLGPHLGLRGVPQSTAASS

[7] = biological target: MAPK9 (human) (UniProt P45984)
[8] = biological target: MARK3 (human) (UniProt P27448)
[9] = biological target: CIT (human) (UniProt O14578)
[10] = system: EGFR (human), P00533 [747-751 del / S ins]
[11] = biological target: PHKG1 (human) (UniProt Q16816)
[12] = biological target: CSNK1A1L (human) (UniProt Q8N752)
[13] = biological target: PDPK1 (human) (UniProt O15530)
[14] = biological target: CDKL2 (human) (UniProt Q92772)
[15] = biological target: MAPK13 (human) (UniProt O15264)
[16] = biological target: STK32B (human) (UniProt Q9NY57)
[17] = biological target: ROS1 (human) (UniProt P08922)
[18] = biological target: KIT (human) (UniProt P10721)
KIT (human), sequence (P10721 whole entry, looked up): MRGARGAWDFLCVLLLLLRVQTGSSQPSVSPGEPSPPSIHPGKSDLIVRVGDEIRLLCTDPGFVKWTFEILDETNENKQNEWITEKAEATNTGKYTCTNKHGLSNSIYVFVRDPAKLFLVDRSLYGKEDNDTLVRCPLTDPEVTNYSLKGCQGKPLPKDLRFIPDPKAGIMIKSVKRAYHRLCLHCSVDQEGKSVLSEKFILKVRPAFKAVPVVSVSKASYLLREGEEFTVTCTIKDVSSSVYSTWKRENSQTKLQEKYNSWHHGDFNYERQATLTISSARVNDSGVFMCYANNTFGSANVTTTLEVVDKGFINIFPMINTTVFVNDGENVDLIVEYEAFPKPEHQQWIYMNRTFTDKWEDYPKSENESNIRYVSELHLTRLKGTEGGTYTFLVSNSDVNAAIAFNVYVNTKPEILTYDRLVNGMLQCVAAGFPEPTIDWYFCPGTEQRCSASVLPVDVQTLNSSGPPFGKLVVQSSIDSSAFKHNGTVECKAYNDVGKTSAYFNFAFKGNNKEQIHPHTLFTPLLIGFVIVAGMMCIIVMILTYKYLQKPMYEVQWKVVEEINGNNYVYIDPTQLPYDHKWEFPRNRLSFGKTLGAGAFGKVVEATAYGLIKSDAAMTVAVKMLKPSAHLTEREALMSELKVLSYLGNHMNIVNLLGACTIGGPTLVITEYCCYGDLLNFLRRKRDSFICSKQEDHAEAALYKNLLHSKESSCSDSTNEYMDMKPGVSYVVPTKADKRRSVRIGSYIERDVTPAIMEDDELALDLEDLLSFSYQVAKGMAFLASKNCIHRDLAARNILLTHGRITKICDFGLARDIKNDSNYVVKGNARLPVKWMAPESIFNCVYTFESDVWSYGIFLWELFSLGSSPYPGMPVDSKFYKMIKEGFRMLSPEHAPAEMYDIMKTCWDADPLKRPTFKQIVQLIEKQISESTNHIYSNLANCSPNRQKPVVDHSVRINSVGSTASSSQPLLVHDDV

[19] = biological target: STK39 (human) (UniProt Q9UEW8)
[20] = biological target: FGFR2 (human) (UniProt P21802)
[21] = biological target: WEE2 (human) (UniProt P0C1S8)
[22] = biological target: MAP2K3 (human) (UniProt P46734)
[23] = biological target: MST4 (human) (UniProt Q9P289)
[24] = biological target: CSNK2A1 (human) (UniProt P68400)
[25] = biological target: TGFBR1 (human) (UniProt P36897)
[26] = biological target: ULK3 (human) (UniProt Q6PHR2)
[27] = biological target: MKNK1 (human) (UniProt Q9BUB5)
[28] = biological target: CDK19 (human) (UniProt Q9BWU1)
[29] = biological target: RPS6KA1 KD2 (human) (UniProt Q15418)
RPS6KA1 KD2 (human), sequence (Q15418 whole entry, looked up): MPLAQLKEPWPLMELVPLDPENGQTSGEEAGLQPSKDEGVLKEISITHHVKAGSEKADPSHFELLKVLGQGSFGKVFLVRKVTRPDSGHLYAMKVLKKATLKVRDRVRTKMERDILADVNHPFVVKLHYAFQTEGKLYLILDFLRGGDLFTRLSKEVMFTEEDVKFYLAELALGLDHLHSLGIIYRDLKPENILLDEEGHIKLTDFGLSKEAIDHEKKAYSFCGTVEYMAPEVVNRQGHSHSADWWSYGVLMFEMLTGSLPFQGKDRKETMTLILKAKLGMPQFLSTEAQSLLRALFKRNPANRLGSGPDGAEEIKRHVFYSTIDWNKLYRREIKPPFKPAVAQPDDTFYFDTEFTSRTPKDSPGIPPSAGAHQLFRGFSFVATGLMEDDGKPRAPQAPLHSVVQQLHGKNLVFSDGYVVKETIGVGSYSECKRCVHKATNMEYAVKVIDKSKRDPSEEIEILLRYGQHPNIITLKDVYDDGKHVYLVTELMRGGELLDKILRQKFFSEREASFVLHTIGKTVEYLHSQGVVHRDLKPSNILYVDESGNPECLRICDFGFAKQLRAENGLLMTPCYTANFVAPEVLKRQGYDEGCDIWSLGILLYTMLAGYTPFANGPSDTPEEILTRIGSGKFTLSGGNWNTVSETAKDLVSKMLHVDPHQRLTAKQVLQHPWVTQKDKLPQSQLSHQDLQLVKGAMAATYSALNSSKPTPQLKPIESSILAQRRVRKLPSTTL

[30] = biological target: JAK2 JH1 catalytic (human) (UniProt O60674)
[31] = biological target: MAK (human) (UniProt P20794)
[32] = biological target: TNK1 (human) (UniProt Q13470)
TNK1 (human), sequence (Q13470 whole entry, looked up): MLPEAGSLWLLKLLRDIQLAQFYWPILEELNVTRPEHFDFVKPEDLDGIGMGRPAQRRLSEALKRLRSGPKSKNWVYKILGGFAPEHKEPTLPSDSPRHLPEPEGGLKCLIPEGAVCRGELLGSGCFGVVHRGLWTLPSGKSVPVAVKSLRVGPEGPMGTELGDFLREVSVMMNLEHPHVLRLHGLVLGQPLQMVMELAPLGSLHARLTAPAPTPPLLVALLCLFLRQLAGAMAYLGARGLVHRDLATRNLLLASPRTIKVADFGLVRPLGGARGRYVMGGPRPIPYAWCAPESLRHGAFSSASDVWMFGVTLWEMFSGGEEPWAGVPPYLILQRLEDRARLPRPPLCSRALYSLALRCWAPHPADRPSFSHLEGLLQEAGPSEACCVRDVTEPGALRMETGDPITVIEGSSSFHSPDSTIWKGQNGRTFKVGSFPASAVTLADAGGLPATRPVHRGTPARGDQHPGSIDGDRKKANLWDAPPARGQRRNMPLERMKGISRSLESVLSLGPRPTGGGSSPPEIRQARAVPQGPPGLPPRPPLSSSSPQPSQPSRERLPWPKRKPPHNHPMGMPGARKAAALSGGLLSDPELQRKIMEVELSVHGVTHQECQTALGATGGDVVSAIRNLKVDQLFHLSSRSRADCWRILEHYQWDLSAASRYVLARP

[33] = biological target: SGK110 (human) (UniProt P0C264)
SGK110 (human), sequence (P0C264 whole entry, looked up): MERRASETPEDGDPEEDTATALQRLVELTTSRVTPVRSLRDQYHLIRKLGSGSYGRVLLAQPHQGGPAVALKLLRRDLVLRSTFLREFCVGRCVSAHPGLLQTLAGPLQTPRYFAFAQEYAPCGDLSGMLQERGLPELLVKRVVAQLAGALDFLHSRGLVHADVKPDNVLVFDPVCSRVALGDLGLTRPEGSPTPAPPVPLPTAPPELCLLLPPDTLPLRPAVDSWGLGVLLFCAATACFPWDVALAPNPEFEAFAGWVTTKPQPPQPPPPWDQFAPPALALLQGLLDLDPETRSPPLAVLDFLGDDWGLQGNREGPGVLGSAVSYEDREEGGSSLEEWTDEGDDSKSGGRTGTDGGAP

[34] = system: KIT (human), P10721 [V559D/V654A]
KIT (human), P10721 [V559D/V654A], sequence (P10721 whole entry V559D/V654A, looked up): as the sequence (P10721 whole entry, looked up) above, with V559D, V654A counted along it

[35] = biological target: BRAF (human) (UniProt P15056)
BRAF (human), sequence (P15056 whole entry, looked up): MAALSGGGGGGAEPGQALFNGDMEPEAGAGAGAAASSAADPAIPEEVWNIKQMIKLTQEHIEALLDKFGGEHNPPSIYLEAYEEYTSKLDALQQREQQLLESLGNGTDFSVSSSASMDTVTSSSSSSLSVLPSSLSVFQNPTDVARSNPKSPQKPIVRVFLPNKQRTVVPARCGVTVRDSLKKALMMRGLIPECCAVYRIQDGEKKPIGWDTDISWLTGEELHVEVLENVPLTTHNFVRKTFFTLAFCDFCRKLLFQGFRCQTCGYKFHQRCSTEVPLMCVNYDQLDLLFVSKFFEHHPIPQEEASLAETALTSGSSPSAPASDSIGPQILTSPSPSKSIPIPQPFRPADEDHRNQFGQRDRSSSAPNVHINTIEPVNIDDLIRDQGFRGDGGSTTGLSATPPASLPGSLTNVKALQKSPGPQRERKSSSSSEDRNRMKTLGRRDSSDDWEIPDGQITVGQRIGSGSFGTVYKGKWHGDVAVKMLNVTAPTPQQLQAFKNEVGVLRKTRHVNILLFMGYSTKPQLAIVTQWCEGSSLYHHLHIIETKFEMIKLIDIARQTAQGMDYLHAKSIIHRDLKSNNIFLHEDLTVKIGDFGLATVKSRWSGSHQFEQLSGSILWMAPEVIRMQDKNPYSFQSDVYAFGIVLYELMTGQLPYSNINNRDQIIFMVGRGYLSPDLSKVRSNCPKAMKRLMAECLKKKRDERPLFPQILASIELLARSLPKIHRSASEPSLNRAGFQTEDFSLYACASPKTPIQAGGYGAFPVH

[36] = biological target: EPHA2 (human) (UniProt P29317)
[37] = biological target: NEK5 (human) (UniProt Q6P3R8)
[38] = biological target: SLK (human) (UniProt Q9H2G2)
[39] = biological target: ULK1 (human) (UniProt O75385)
[40] = biological target: MINK1 (human) (UniProt Q8N4C8)

BMPR1B (human), sequence (O00238 whole entry, looked up): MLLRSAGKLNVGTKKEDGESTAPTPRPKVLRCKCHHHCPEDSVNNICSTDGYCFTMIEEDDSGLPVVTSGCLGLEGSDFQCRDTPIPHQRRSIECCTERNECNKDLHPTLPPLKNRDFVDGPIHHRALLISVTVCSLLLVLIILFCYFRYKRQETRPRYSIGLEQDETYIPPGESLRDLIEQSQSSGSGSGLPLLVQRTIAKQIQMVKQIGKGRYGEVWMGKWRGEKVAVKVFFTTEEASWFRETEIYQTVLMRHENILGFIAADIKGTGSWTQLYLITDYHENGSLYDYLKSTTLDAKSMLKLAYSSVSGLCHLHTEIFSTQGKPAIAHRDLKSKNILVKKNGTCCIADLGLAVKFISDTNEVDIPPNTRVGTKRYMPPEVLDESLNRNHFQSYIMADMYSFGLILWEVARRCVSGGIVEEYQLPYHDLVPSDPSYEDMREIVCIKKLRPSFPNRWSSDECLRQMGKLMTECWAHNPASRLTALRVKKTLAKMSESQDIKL
TSSK1B (human), sequence (Q9BXA7 whole entry, looked up): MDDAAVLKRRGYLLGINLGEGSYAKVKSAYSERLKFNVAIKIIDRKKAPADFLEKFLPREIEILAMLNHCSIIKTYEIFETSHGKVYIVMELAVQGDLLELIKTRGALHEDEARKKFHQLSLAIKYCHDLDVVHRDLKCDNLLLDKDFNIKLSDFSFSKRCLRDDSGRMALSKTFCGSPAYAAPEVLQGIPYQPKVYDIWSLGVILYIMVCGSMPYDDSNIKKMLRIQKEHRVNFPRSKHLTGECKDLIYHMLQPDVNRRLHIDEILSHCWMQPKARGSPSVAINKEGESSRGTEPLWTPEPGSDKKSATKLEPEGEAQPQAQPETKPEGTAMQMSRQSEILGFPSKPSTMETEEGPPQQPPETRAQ

Compound `O=c1cc(N2CCOCC2)oc2c(-c3cccc4c3sc3ccccc34)cccc12` has a kinase still bound, per cent of control [1] of 100%, a kinase still bound, per cent of control [2] of 100% and a kinase still bound, per cent of control [3] of 100%. The kinase still bound, per cent of control [4] was 35%, the kinase still bound, per cent of control [5] was 83% and the kinase still bound, per cent of control [6] was 85%. It also gave a kinase still bound, per cent of control [7] of 39%, a kinase still bound, per cent of control [8] of 99% and a kinase still bound, per cent of control [9] of 85%. It also gave a kinase still bound, per cent of control [10] of 100%, a kinase still bound, per cent of control [11] of 100% and a kinase still bound, per cent of control [12] of 92%. It also gave a kinase still bound, per cent of control [13] of 95%, a kinase still bound, per cent of control [14] of 96% and a kinase still bound, per cent of control [15] of 99%. It also gave a kinase still bound, per cent of control [16] of 95%, a kinase still bound, per cent of control [17] of 90% and a kinase still bound, per cent of control [18] of 80%. For the same compound, the kinase still bound, per cent of control [19] was 100%, the kinase still bound, per cent of control [20] was 82% and the kinase still bound, per cent of control [21] was 100%. It also gave a kinase still bound, per cent of control [22] of 91%, a kinase still bound, per cent of control [23] of 95% and a kinase still bound, per cent of control [24] of 74%. For the same compound, the kinase still bound, per cent of control [25] was 100%, the kinase still bound, per cent of control [26] was 64% and the kinase still bound, per cent of control [27] was 100%. For the same compound, the kinase still bound, per cent of control [28] was 100%, the kinase still bound, per cent of control [29] was 75% and the kinase still bound, per cent of control [30] was 67%. It also gave a kinase still bound, per cent of control [31] of 43%, a kinase still bound, per cent of control [32] of 100% and a kinase still bound, per cent of control [33] of 100%. The kinase still bound, per cent of control [34] was 100%, the kinase still bound, per cent of control [35] was 100% and the kinase still bound, per cent of control [36] was 72%. For the same compound, the kinase still bound, per cent of control [37] was 100%, the kinase still bound, per cent of control [38] was 100% and the kinase still bound, per cent of control [39] was 41%. The kinase still bound, per cent of control [40] was 100%.
